Measured values taken from ChEMBL document CHEMBL4765387, “Design of G-protein-coupled bile acid receptor 1 (GPBAR1, TGR5) soft drugs with reduced gallbladder-filling effects” (Eur J Med Chem, 2020).
Values belong to the compound of their own block, whether it stands above or below them.

How the values were obtained:
[1] = Stability of the compound in mouse plasma assessed as parent compound remaining at 1 uM measured after 5 mins; format: ADME, cell-free; details: read-out: Stabilty
[2] = Cmax in overnight-fasted ICR mouse systemic circulation at 50 mg/kg, po measured after 1 hr by LC-MS/MS analysis; format: ADME, organism-based; set-up: route oral, time 1 hrs, dose 50 mg/kg
[3] = Cmax in overnight-fasted ICR mouse systemic circulation assessed as 5-[3-(4-Cyclopropyl-3,4-dihydro-2H-quinoxaline-1-carbonyl)-pyridin-4-yloxy]-benzofuran-3-carboxylic acid at 50 mg/kg, po measured after 1 hr by LC-MS/MS analysis; format: ADME, organism-based; set-up: route oral, dose 50 mg/kg, time 1 hrs; details: in vivo
[4] = Cmax in overnight-fasted ICR mouse gallbladder tissue assessed as 5-[3-(4-Cyclopropyl-3,4-dihydro-2H-quinoxaline-1-carbonyl)-pyridin-4-yloxy]-benzofuran-3-carboxylic acid at 50 mg/kg, po measured after 1 hr by LC-MS/MS analysis; format: ADME, organism-based, Gall bladder; set-up: route oral, time 1 hrs, dose 50 mg/kg; details: in vivo
[5] = Cmax in overnight-fasted ICR mouse bile assessed as 5-[3-(4-Cyclopropyl-3,4-dihydro-2H-quinoxaline-1-carbonyl)-pyridin-4-yloxy]-benzofuran-3-carboxylic acid at 50 mg/kg, po measured after 1 hr by LC-MS/MS analysis; format: ADME, organism-based; set-up: route oral, time 1 hrs, dose 50 mg/kg; details: in vivo
[6] = Peak drug concentration in overnight-fasted ICR mouse ileum at 50 mg/kg, po measured after 2 hr by LC-MS/MS analysis; format: ADME, organism-based; set-up: route oral, dose 50 mg/kg, time 2 hrs
[7] = Peak drug concentration in overnight-fasted ICR mouse colon at 50 mg/kg, po measured after 4 hr by LC-MS/MS analysis; format: ADME, organism-based; set-up: route oral, time 4 hrs, dose 50 mg/kg

Structure (SMILES): CCOC(=O)c1coc2cc(Cl)c(Oc3ccncc3C(=O)N3CCN(C4CC4)c4ccccc43)cc12
remaining at 5 min, 1 µM [1]: 92.4%

Structure (SMILES): COC(=O)c1coc2ccc(Oc3ccncc3C(=O)N3CCN(C4CC4)c4ccccc43)cc12
remaining at 5 min, 1 µM [1]: 71%

Structure (SMILES): CCOCOC(=O)c1coc2ccc(Oc3ccncc3C(=O)N3CCN(C4CC4)c4ccccc43)cc12
Cmax [2]: 3 ng/mL
Cmax [3]: 80 ng/mL
Cmax [4]: 80 ng/mL
Cmax [5]: 80 ng/mL
Cmax [6]: 10200 ng/g
Cmax [7]: 2700 ng/g

Next, values leading:

remaining at 5 min, 1 µM [1]: 12.3%
Structure (SMILES): CCCOC(=O)c1coc2ccc(Oc3ccncc3C(=O)N3CCN(C4CC4)c4ccccc43)cc12

remaining at 5 min, 1 µM [1]: 38.5%
Structure (SMILES): CCOC(=O)c1coc2ccc(Oc3ccncc3C(=O)N3CCN(C4CC4)c4ccccc43)cc12
